Measurements: US20260041677A1, “COMPOSITIONS AND METHODS FOR TREATING ADENOID CYSTIC CARCINOMA” (ELEVAR THERAPEUTICS, INC., priority 2022, published 2026)

System: recurrent or metastatic (R/M) adenoid cystic carcinoma (ACC)
Assay: Phase 2 study of rivoceranib in R/M ACC: response, PFS, TTP per CHOI response criteria by BIRC
Type: in vivo, human
Details: for Complete Response / DoR 25th percentile / DoR 75th percentile / DoR Median / Partial Response / Progressive Disease / Stable Disease / DCR (disease control rate): BIRC
Excerpt: Objectives: Primary objectives were to evaluate safety & tolerability, efficacy by objective response rate (ORR), best overall response (BOR), time to response, duration of response, disease control rate, and duration of disease control. Secondary objectives were to evaluate efficacy as measured by overall survival, progression-free survival and event-free survival. The primary efficacy endpoint was the ORR, defined as the proportion of patients who achieved confirmed complete response (CR) or partial response (PR) per Response Evaluation Criteria in Solid Tumors (RECIST) Version 1.1 (V1.1). The secondary efficacy endpoints were duration of response (DoR) assessed by the investigator and a blinded independent review committee (BIRC), progression-free survival (PFS) assessed at 6 months, 12 months, and 2 years by investigator and BIRC, Time to Progression (TTP) assessed by investigator and BIRC, and overall survival (OS) assessed at 1 and 2 years. Exploratory efficacy endpoints include ORR per CHOI response criteria (based on the journal article, Choi et al., Correlation of computed tomography and positron emission tomography in patients with metastatic gastrointestinal stromal tumor treated at a single institution with imatinib mesylate: proposal of new computed tomography response criteria. J Clin Oncol. 2007; 25(13): 1753-1759) by a blinded independent review […] (BIRC) and disease control rate (DCR) per RECIST V1.1 by Investigator and BIRC. Except for CHOI response criteria, all response endpoints were assessed per RECIST V1.1 by Investigator and BIRC.
Endpoint of Response per CHOI response Criteria: CHOI response criteria assesses response based on change in tumor density as well as change in tumor size and have been most often used to assess response to treatment with tyrosine kinase inhibitors such as imatinib in gastrointestinal stromal tumors (GIST) where RECIST criteria underestimate response. Evaluation of response per CHOI response criteria by BIRC was added to the protocol for exploratory analysis because Investigators observed decreases in tumor density on treatment with rivoceranib without changes in tumor lesion diameters. Changes in tumor density had not been reported with other treatments investigated for R/M ACC.
Objective response rate (ORR), duration of response (DOR) and disease control rate (DCR) in the efficacy evaluable population per CHOI response criteria (using the same data set as used for analyses per RECIST V1.1): Assessment of response per CHOI response criteria required a subject have contrast-enhanced CT scan as the imaging modality for assessment of tumor density at baseline and post-baseline time points. Therefore, fewer subjects were efficacy evaluable per CHOI response criteria (N=60) than per RECIST V1.1 criteria (N=73). […] This is >4-fold higher than the ORR of 9.6% per RECIST V1.1 reported by BIRC. […] Median DOR per CHOI response criteria was 14.8 months, which was two-fold higher than that reported per RECIST V1.1-7.2 months reported by BIRC.

[1] = CHOI criteria, Total N = 60, 700 mg QD start
[2] = CHOI criteria, VEGFRi-naïve N = 48, 700 mg QD start
[3] = CHOI criteria, VEGFRi-treated N = 12, 700 mg QD start
[4] = CHOI criteria, efficacy evaluable population, 700 mg QD start

Compound: N#CC1(c2ccc(NC(=O)c3cccnc3NCc3ccncc3)cc2)CCCC1 [Rivoceranib, N-[4-(1-cyanocyclopentyl)phenyl]-2-{[(pyridin-4-yl)methyl]amino}pyridine-3-carboxamide]
- ORR per CHOI criteria relative to ORR per RECIST V1.1 by BIRC (51.7% vs 9.6%): > 4 fold
- Complete Response [1]: 0%
- DoR 25th percentile [1]: 7.2 months
- DoR 75th percentile [1]: 20.2 months
- DoR Median [1]: 14.8 months
- Partial Response [1]: (51.7) %
- Progressive Disease [1]: (6.7) %
- Stable Disease [1]: (41.7) %
- Complete Response [2]: 0%
- DCR (disease control rate) [2]: (60.4) %
- DoR 25th percentile [2]: 7.2 months
- DoR 75th percentile [2]: 20.2 months
- DoR Median [2]: 14.8 months
- Partial Response [2]: (52.1) %
- Progressive Disease [2]: (6.3) %
- Stable Disease [2]: (41.7) %
- Complete Response [3]: 0%
- DCR (disease control rate) [3]: (66.7) %
- DoR 25th percentile [3]: 12.2 months
- DoR Median [3]: 12.2 months
- Partial Response [3]: (50.0) %
- Progressive Disease [3]: (8.3) %
- Stable Disease [3]: (41.7) %
- Median TTP [4]: 14.4 months
- estimated PFS rate at 6 months [4]: 80.4%
- estimated PFS rate at 9 months [4]: 62.6%
- estimated PFS rate at 12 months [4]: 53.8%
- estimated TTP rate at 6 months [4]: 82%
- estimated TTP rate at 9 months [4]: 67.7%
- estimated TTP rate at 12 months [4]: 58.3%
- median PFS [4]: 13.8 months
